# Test results as given in patent publication US20050187188A1, “Methods for the treatment of a traumatic central nervous system injury” (Emory University, priority 2000, published 2005).
# Key:
# traumatic brain injury = experiment: Morris water maze dose response, progesterone in cyclodextrin vehicle, Example 7; format: in vivo, rat
# Procedure: The Morris Water Maize (MWM) consisted of a circular tank with a diameter of 133 cm filled with opaque water (20±1° C.; non-toxic Artista™ nontoxic white tempura paint) to a depth of 64 cm (23 cm from top of tank). A platform (11 cm×11 cm) was submerged to a depth of 2 cm and placed approximately 28 cm from the wall of the pool in the center of the northeast quadrant. The position of the platform will remain constant throughout the experiment. MWM testing began seven days after surgery. Each animal was tested for a total of 10 days (2 trials per day) in two 5-day blocks. At the start of each trial, the experimenter placed a rat into the pool at one of four starting positions, and at the same time, activate the computer-interfaced camera tracking system. Each rat was allowed to swim in the pool until it reached the platform or until 90 seconds has passed. […] Once a rat found the platform, it was left there for 20 seconds and then removed from the pool for an intertrial interval of 20 seconds. Each rat was then placed in the pool at another start position and the procedure described earlier was repeated. The performance of each rat was measured in terms of latency to platform, length of path to platform, and swim strategy, i.e., percent of total time spent in the outer versus inner annuli.
# Surgery to induce a traumatic brain injury was performed as outlined in Example 1. Behavior testing using the Morris Water Maize was performed as outlined in Example 1 and the methods for the tactical adhesive removal were performed as outlined in Example 4.
# [1] = test system: rats with bilateral contusions of the medial prefrontal cortex; experiment: Bilateral sensory neglect (BSN) task, Example 6; format: in vivo, rat; settings: 3 days (LP3); 6 and 20 days post injury
# Procedure: (§1) Male Sprague-Dawley rats (300 g) were housed individually in wire cages and kept on a reverse light-dark cycle (0800-2000 h). Animals were assigned to one of four groups: (1) lesion (n=7); (2) lesion +3 days progesterone (LP3; n=7); (3) lesion +5 days progesterone (LP5; n=7); and (4) Sham (n=8). All procedures involving animals conformed to guidelines set forth in the Guide for the Care and Use of Laboratory Animals (U.S. Department of Health and Human Services, Pub no. 85-23, 1985) and were approved by the Emory University Institutional Animal Care and Use Committee.
# Bilateral contusions of the medial prefrontal cortex were created by a pneumatic impactor device as previously described. […]
# Experienced individuals who were blind to treatment conditions of the study conducted all histological and behavioral analyses. All data were tested for normality and homoschedasticity before being analyzed by parametric analysis of variance (ANOVA). MWM results were analyzed using separate mixed-factorial (4 groups×5 days) analysis of variance (ANOVA) on each of the two 5-day testing periods (acquisition and retention respectively). Results of the BSN task were analyzed using the mixed-factorial ANOVA (4 groups×2 post-injury trials). […]
# Measures of attentional abilities, using a bilateral sensory neglect (BSN) task, were recorded one day prior to surgery (baseline) and on postsurgical days 6 and 20. […]
# contusion injury = settings: cited from earlier work
# [2] = test system: rats with bilateral contusions of the medial prefrontal cortex; experiment: Lesion size, ventricle and striatal area measurements after medial prefrontal cortex contusion, Example 6; format: in vivo, rat; settings: 4 mg/kg in peanut oil
# Procedure: as §1
# Bilateral contusions of the medial prefrontal cortex were created by a pneumatic impactor device as previously described. Briefly, rats were given anesthetized with ketamine/xylazine (90 mg/kg; 10 mg/kg) and placed in a stereotaxic apparatus. A craniectomy (diameter 6 mm) was made over the midline of the prefrontal cortex with its center 1.5 mm AP to bregma. After removal of the bone, the tip of the impactor (diameter 5 mm) was moved to +3.0 mm AP; 1.0 mm ML (from bregma), and checked for adequate clearance. Trauma was produced by pneumatically activating the piston to impact −2.0 mm DV (from dura) at a velocity of 3 m/s with a brain contact time of 0.5 seconds.
# Progesterone was dissolved in peanut oil (Sigma; 4 mg/kg) and injections were given at 1 and 6 hours post-injury and then once per day for either 3 or 5 consecutive days. Control animals received injections of vehicle at similar time-points. Animals were coded with regard to surgery and treatment to prevent experimenter bias during behavioral testing and histological examination. […]
# Mean area measurements of lesion size were quantified from sections at 15 rostral-caudal levels spaced 300 μm apart. […] Perimeters of the striatum and the lateral ventricles were also traced and mean areas were quantified from 7 rostral-caudal levels (300 μm apart).
# Experienced individuals who were blind to treatment conditions of the study conducted all histological and behavioral analyses. All data were tested for normality and homoschedasticity before being analyzed by parametric analysis of variance (ANOVA). MWM results were analyzed using separate mixed-factorial (4 groups×5 days) analysis of variance (ANOVA) on each of the two 5-day testing periods (acquisition and retention respectively). Results of the BSN task were analyzed using the mixed-factorial ANOVA (4 groups×2 post-injury trials). […] Pearson r coefficients were calculated to determine whether significant correlations could be detected between histological (e.g., lesion size and cellular density) and behavioral parameters (e.g., acquisition and retention of the MWM task and measures of sensory neglect).
smiles,measurement,setting,value
CC(=O)[C@H]1CC[C@H]2[C@@H]3CCC4=CC(=O)CC[C@]4(C)[C@H]3CC[C@]12C [progesterone],Morris water maze performance,traumatic brain injury; high dose 32 mg/kg in a cyclodextrin-containing vehicle,did not show any beneficial effect
same,Morris water maze performance,traumatic brain injury; low dose 8 mg/kg in a cyclodextrin-containing vehicle,consistent improvement in Morris water maze performance
same,Morris water maze performance,traumatic brain injury; moderate dose 16 mg/kg in a cyclodextrin-containing vehicle,consistent improvement in Morris water maze performance
same,BSN task performance,[1],impaired on this task compared to control animals
same,post injury cerebral edema,contusion injury; following a contusion injury,reduces the severity of post injury cerebral edema
same,neuronal loss in the LMDN,contusion injury; previous studies with this injury model,can significantly reduce this neuronal loss
same,enlargement of the lateral ventricles,[2]; 3 or 5 days,did not have any effect on this measure
same,mean striatal area,[2]; 3 or 5 days,No between-group differences
same,necrotic cavity formation,[2]; 3 days (LP3),tended to be smaller than in the brains of injured animals
same,necrotic cavity formation,"[2]; 5 days (LP5), P<0.05",significant reductions in overall necrotic cavity formation
